Data published in US9133257B2, “Antimicrobial peptides and derived metapeptides” (priority 1998, dated 2015).
Ends that are not written are not given here.

What was measured:
[1] = tested on: Candida Albicans ATCC 36082; parameters: key: R, resistant; S, sensitive; details: control strain ATCC 36082; cited from earlier work
[2] = tested on: Candida Krusei ATCC 32672; parameters: key: R, resistant; S, sensitive; details: control strain ATCC 32672; cited from earlier work
[3] = tested on: Candida Lusitaniae ATCC 42720; parameters: key: R, resistant; S, sensitive; details: control strain ATCC 42720; cited from earlier work
[4] = tested on: Pseudomonas aeruginosa ATCC 17468; parameters: key: R, resistant; S, sensitive; details: control strain ATCC 17468; cited from earlier work
[5] = tested on: Enterococcus Faecalis ATCC 47707; parameters: key: R, resistant; S, sensitive; details: control strain ATCC 47707; cited from earlier work
[6] = tested on: Streptococcus pneumonia ATCC 35088; parameters: key: R, resistant; S, sensitive; details: control strain ATCC 35088; cited from earlier work
[7] = tested on: Escherichia coli ATCC 43827; parameters: key: R, resistant; S, sensitive; details: control strain ATCC 43827; cited from earlier work
[8] = tested on: Staphylococus Aureus ATCC 27217; parameters: key: R, resistant; S, sensitive; details: control strain ATCC 27217; cited from earlier work
a spectrum of pathogens = test: antimicrobial spectra in vitro (radial diffusion assay)
S. aureus strain 6850 = test: flow cytometry of membrane depolarization (DiOC5), permeabilization (PI) and killing, PMP-susceptible strain; assay type: cell-based
Text: (§1) Our recent studies have provided new evidence that PMPs differ in mechanisms of action from those of other antimicrobial peptides. We used flow cytometry to study the mechanisms of action of PMPs against S. aureus strain pair 6850 (PMP^S) and JB-1 (PMP^R) in vitro. Strain JB-1 is a menadione auxotroph of parent strain 6850, and has a decreased transcytoplasmic membrane potential (ΔΨ). We used the fluorescent probes dioxycarbocyanine (DiOC5) and propidium iodide (PI) to quantify the effects of PMP-2 and human defensin NP-1 (hNP-1) on ΔΨ and permeability, respectively. […] Menadione reconstituted the PMP^R strain ΔΨ to a level equivalent to the PMP^S strain. This was associated with increased depolarization, permeabilization, and killing of the PMP^R strain due to PMP-2. Therefore, the mechanism of PMP-2 action involves rapid, pH-dependent membrane permeabilization with membrane depolarization. These effects were different from hNP-1, or the cationic antibacterial agents protamine or gentamicin.
Flow cytometry can also be used to examine kinetics and mechanisms of the action of the peptides on bacterial membrane integrity and energetics. Peptides which differ in activity or specificity for their ability to depolarize and/or permeabilize microbial membranes can also be compared by analysis of membrane depolarization, and permeabilization. DiOC5 is a charged lipophilic dye which partitions into the cytoplasm, and is dependent on intact Δψ for intracellular retention. Organisms prepared as above are labeled in darkness for 30 minutes at about 20° C. in PBS containing 0.05 μM DiOC5. Organisms are resuspended to a concentration of 5×10^8 CFU/ml in K^+MEM containing an individual peptide, and incubated at 37° C. For flow cytometry, organisms are washed, sonicated, counted, and resuspended in K^+MEM buffer. Reductions in mean DiOC5 fluorescence relative to controls are interpreted to represent loss of DiOCs, indicating membrane depolarization. Positive control cells exposed to valinomycin, as well as control cells not exposed to any peptides, are analyzed for DiOC5 fluorescence in parallel.
Propidium iodide is excluded from cells with normal membrane integrity, but enters cells permealized to molecules ≧2 nm in diameter, and can be stimulated to emit fluorescence at >620 nm. […] Cells are washed in fresh K^+MEM, sonicated, counted, and resuspended in KIMEM buffer containing 20 μM propidium iodide. Control cells exposed to ethanol (positive control for permeabilization) are assessed for propidium iodide uptake in parallel. Increases in mean propidium iodide fluorescence relative to control cells are interpreted to indicate increases in permeability.

[9] = tested on: Salmonella typhimurium strain 14028; test: susceptibility of Salmonella typhimurium strains; assay type: cell-based; details: parental strain 14028
relevant pathogens = test: microbicidal activity in vitro at pH 5.5 vs 7.2; assay type: cell-based
Text: Our preliminary data provide a basis for our central discovery that PMPs have specific, independent determinants responsible for direct antimicrobial activities and potentiation of neutrophil antimicrobial functions. We have shown that these determinants can be isolated, optimized, and utilized to design novel mosaic peptides with selective antimicrobial properties. With a goal of designing novel therapeutics that have potent and selective antimicrobial functions and low toxicity, optimizing the activities of the distinct structural determinants in such peptides is essential.
Controls contain buffer alone or non-antimicrobial proteins and organism as above. Mixtures are incubated at 37° C. for up to 48 hours, after which aliquots are quantitatively cultured and incubated for 24 to 48 hours. Killing is expressed as decrease in logarithm10 surviving CFU/ml. The limit of sensitivity in microbicidal assays is considered to be a 1 log reduction in viable cells.

human erythrocytes = assay type: cell-based
Text: (§2) The majority of known mammalian antimicrobial peptides have been localized within leukocytes (e.g., defensins), or secreted onto epithelial surfaces such as intestinal lumen or tracheal epithelium (e.g., cryptdins, tracheal antimicrobial peptide). Prohibitive levels of mammalian cell toxicity have been noted with many of these peptides when they have been tested as antimicrobial therapeutics. In contrast, PMPs exert potent in vitro microbicidal activity against a broad spectrum of bacteria and fungi under physiological conditions that exist in the intravascular space. Several PMPs are released from platelets stimulated with agonists associated with infection. Therefore, in response to tissue injury, PMPs are likely released into the mammalian bloodstream at localized sites of infection. […] These potencies compare favorably to potent conventional antimicrobial agents such as aminoglycosides or amphotericin B.
Four-percent (vol/vol) of washed human erythrocytes (in PBS alone, or in PBS plus 10% heat-inactivated PNHS are incubated with selected peptides ranging in concentration up to 100 times greater than geometric mean MICs. After 24 hours of incubation at 37° C., erythrocyte permeabilization and hemolysis are determined spectrophotometrically. Permeabilization and hemolysis will be compared to buffers alone, and with a triton X-100 control (100% hemolysis).

human neutrophils [10] = test: neutrophil phagocytosis of S. aureus pre-exposed to sub-lethal PMP-2 or serum; assay type: cell-based; details: organisms pre-exposed 30 minutes to sub-lethal concentrations, mixed with neutrophils (20:1), 37° C., 2 hours
Protocol: (§3) We have initially studied the influence of PMP-2 on in vitro neutrophil phagocytosis and intracellular killing of S. aureus. In our preliminary experiments, a heterologous system was established employing human neutrophils, pooled normal human serum, or crude rabbit PMP-2. Organisms (5×10^7/ml) were pre-exposed to sub-lethal concentrations of serum or PMP-2 for 30 minutes, washed, mixed with neutrophils (20:1), and incubated at 37° C. for 2 hours. We observed a significant increase in phagocytosis of S. aureus when pre-exposed to PMP-2 (mean organisms/neutrophil=11.2), as compared with serum (mean organisms/neutrophil=6.4) or buffer control (mean organisms/neutrophil=3.7; P<0.05 for PMP-2 vs. serum or buffer). To quantify intracellular killing, neutrophils were lysed, and aliquots quantitatively cultured to enumerate surviving S. aureus cells.

[11] = tested on: vascular endothelial cells; assay type: cell-based, human
Text: as §2
Endothelial cell injury due to peptides is measured using a standard chromium (^51Cr) release assay, described in Filler, S. G., et al., “Candida stimulates endothelial cell eicosanoid production” J Infect Dis. […] After a predetermined incubation period, the medium is aspirated and the amount of ^51Cr released into the medium is measured by scintillation. […]

S. aureus strain JB-1 = test: flow cytometry of membrane depolarization (DiOC5), permeabilization (PI) and killing, PMP-resistant strain; assay type: cell-based; details: PMP-resistant strain JB-1 compared with PMP-susceptible strain
Text: as §1, with “This was associated with increased depolarization, permeabilization, and killing of the PMP^R strain due to PMP-2. Therefore, the mechanism of PMP-2 action involves rapid, pH-dependent membrane permeabilization with membrane depolarization. These effects were different from hNP-1, or the cationic antibacterial agents protamine or gentamicin.” left out
Flow cytometry can also be used to examine kinetics and mechanisms of the action of the peptides on bacterial membrane integrity and energetics. […] For flow cytometry, organisms are washed, sonicated, counted, and resuspended in K^+MEM buffer. Reductions in mean DiOC5 fluorescence relative to controls are interpreted to represent loss of DiOCs, indicating membrane depolarization. Positive control cells exposed to valinomycin, as well as control cells not exposed to any peptides, are analyzed for DiOC5 fluorescence in parallel.
Propidium iodide is excluded from cells with normal membrane integrity, but enters cells permealized to molecules ≧2 nm in diameter, and can be stimulated to emit fluorescence at >620 nm. […]

S. aureus = test: transmission electron microscopy of bacterial cells after peptide exposure; assay type: cell-based; details: 10 μg/ml, as little as 15-60 min
Text: PMPs and tPMPs target and disrupt microbial cytoplasmic membranes. We have investigated morphologic consequences of rabbit PMP-2 and tPMP-1 exposure to bacterial cells, protoplasts, and lipid bilayers in vitro using transmission electron microscopy (TEM) and biophysical techniques. […] Ultrastructural damage precedes detectable bactericidal and bacteriolytic effects. […] It is important to reiterate that PMPs are likely released into the bloodstream in response to infection, such that they presumably accumulate locally at sites of infection to act directly and indirectly in antimicrobial host defense.

human neutrophils [12] = test: intracellular killing of S. aureus by neutrophils; assay type: cell-based; details: 2 hour time point, neutrophils lysed, quantitative culture
Protocol: as §3

In the case of `C[C@@H]1[C@H](O)[C@@H](C)/C=C/C=C/C=C/C=C/C=C/C=C/C=C/[C@H](O[C@@H]2O[C@H](C)[C@@H](O)[C@H](N)[C@@H]2O)C[C@@H]2O[C@](O)(C[C@@H](O)C[C@@H](O)[C@H](O)CC[C@@H](O)C[C@@H](O)CC(=O)O[C@H]1C)C[C@H](O)[C@H]2C(=O)O` [Amb, amphotericin B], the “Antibiotic Resistance Phenotype” value [1] is listed as “S”, the “Antibiotic Resistance Phenotype” value [2] is listed as “S” and the “Antibiotic Resistance Phenotype” value [3] is listed as “R”.

For `CN[C@H](CC(C)C)C(=O)N[C@H]1C(=O)N[C@@H](CC(N)=O)C(=O)N[C@H]2C(=O)N[C@H]3C(=O)N[C@H](C(=O)N[C@H](C(=O)O)c4cc(O)cc(O)c4-c4cc3ccc4O)[C@H](O)c3ccc(c(Cl)c3)Oc3cc2cc(c3O[C@@H]2O[C@H](CO)[C@@H](O)[C@H](O)[C@H]2O[C@H]2C[C@](C)(N)[C@H](O)[C@H](C)O2)Oc2ccc(cc2Cl)[C@H]1O` [Van, vancomycin], the “Antibiotic Resistance Phenotype” value [4] is listed as “R”, the “Antibiotic Resistance Phenotype” value [5] is listed as “R” and the “Antibiotic Resistance Phenotype” value [6] is listed as “S”. For the same molecule, the “Antibiotic Resistance Phenotype” value [7] was “S” and the “Antibiotic Resistance Phenotype” value [8] was “S”.

In the case of ALYKKFKKKLLKSLKRLG [RP-1], the “pH optima for microbicidal activity” value (a spectrum of pathogens) is reported as 7.2 pH and the “concentration for microbicidal activity” value (a spectrum of pathogens; in vitro) is reported as “nanomolar concentration”.

In the case of hNP-1: human neutrophil defensin NP-1, the “pH dependence of membrane permeabilization” value (S. aureus strain 6850; pH 7.2 vs pH 5.5) is reported as “greater at pH 7.2 than at pH 5.5”, the “membrane permeabilization, PMP-susceptible vs PMP-resistant strain” value (S. aureus strain 6850; strains 6850 and JB-1 compared) is reported as “equivalent” and the susceptibility of strain [9] is reported as “intrinsically resistant”.

For H-ATKKNGRKLCLDLQAAL-OH [PMP-246-63], the “pH dependence of microbicidal activity” value (relevant pathogens) was “significantly amplified at pH 5.5 as compared to pH 7.2”.

In the case of `OC(Cn1cncn1)(Cn1cncn1)c1ccc(F)cc1F` [Flu, fluconazole], the “Antibiotic Resistance Phenotype” value [1] is given as “S”, the “Antibiotic Resistance Phenotype” value [2] is given as “R” and the “Antibiotic Resistance Phenotype” value [3] is given as “R”.

B1: PMP-2: 74 residue rabbit platelet microbicidal protein, variant of PMP-1, analogue of rPF-4 (protein, listed as Oryctolagus cuniculus)
chain: SDDPKESEGDLHCVCVKTTSLVRPRHITNLELIKAGGHCPTANLIATKKNGRKLCLDLQAALYKKKIIKKLLES
With B1 the “damage of human erythrocytes” value (human erythrocytes) was “minimal damage”, the “depolarization, permeabilization and killing” value (S. aureus strain 6850; PMP-susceptible strain 6850) was “rapidly depolarized, permeabilized, and killed” and the “pH dependence of depolarization, permeabilization and killing” value (S. aureus strain 6850; pH 5.5 vs. pH 7.2) was “significantly greater at pH 5.5 vs. pH 7.2”. The “phagocytosis of S. aureus, mean organisms/neutrophil” value (human neutrophils [10]) was 11.2 organisms/neutrophil, the “damage of vascular endothelial cells” value [11] was “minimal damage” and the “pH dependence of microbicidal activity” value (relevant pathogens) was “significantly greater microbicidal activity at pH 5.5 vs. 7.2”. The “depolarization, permeabilization and killing” value (S. aureus strain JB-1) was “significantly less”, the “ultrastructural damage (TEM)” value (S. aureus) was “Rapid cytoplasmic membrane disruption, followed by cell wall swelling” and the susceptibility of strain [9] was “as susceptible to PMP-2 as hNP-1 hypersusceptible strains 4252s and 5996s”. For the same molecule, the “S. aureus cells surviving intracellular killing” value (human neutrophils [12]) was 23.8%.
